Laboratory results taken from patent publication US20040057926A1, “Modulation of the immune response through the manipulation of arginine levels” (LSU Medical Center, priority 2002, published 2004).

Assays:
ASE = ASE activity assay (L-ornithine production) in PM lysates; format: biochemical, mice; conditions: NOHA 100 μM, Nor-NOHA 50 μM
Method: Cell lysates from PM stimulated with IL-4+IL-13 or IFN-γ were tested for ASE activity by measuring the production of L-ornithine. In brief, cell lysates from PM stimulated with IL-4+IL-13 or IFN-γ in the presence or absence of NOHA or Nor-NOHA were added to 50 μl of Tris-HCl (50 mM; pH 7.5) containing 10 mM MnCl2. This mixture was heated at 55-60° C. for 10 min to activate ASE. The hydrolysis reaction from L-Arg to L-ornithine was identified by a colorimetric assay after the addition of ninhydrin solution and incubation at 37° C. for 1 h.

CAT-2B = CAT-2B (Homo sapiens, UniProt P52569); conditions: read-out: Km for L-Arg; cited from earlier work
Sequence of CAT-2B (P52569 whole entry, species assumed): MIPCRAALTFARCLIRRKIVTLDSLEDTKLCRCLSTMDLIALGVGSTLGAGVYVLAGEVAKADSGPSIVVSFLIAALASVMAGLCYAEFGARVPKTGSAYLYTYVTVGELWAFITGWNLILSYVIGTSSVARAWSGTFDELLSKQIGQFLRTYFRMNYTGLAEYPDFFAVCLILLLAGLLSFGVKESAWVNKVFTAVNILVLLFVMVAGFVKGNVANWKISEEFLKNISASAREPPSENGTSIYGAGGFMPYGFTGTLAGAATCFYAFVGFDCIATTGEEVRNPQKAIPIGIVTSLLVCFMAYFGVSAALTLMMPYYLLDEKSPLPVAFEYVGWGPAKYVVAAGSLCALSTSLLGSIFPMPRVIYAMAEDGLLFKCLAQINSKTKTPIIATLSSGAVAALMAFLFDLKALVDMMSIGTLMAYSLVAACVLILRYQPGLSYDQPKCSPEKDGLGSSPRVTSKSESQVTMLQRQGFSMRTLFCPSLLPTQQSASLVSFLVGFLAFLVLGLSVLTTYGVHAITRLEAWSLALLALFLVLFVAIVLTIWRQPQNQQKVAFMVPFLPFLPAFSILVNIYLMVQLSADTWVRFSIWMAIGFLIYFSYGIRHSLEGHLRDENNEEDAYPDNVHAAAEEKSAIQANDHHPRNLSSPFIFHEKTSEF

purified T-cells = test: CD3ζ and phospho-CD3ζ expression in stimulated purified T-cells (flow cytometry); format: cell-based, human
Method: Peripheral blood mononuclear cells (PBMC) from normal donors were separated over Ficoll-Paque (Pharmacia Biotech, Uppsala, Sweden). PBMC were enriched over T-cell enrichment columns (R&D Systems, Minneapolis, Minn.). After 10 min. of incubation, the columns were washed and the obtained enriched T-cells were counted and tested for surface markers by flow cytometry. […].
Tissue culture dishes (100 mm) (Corning, N.Y.) were coated overnight at 4° C. with PBS containing 10 μg/ml of anti-CD3 (OKT-3 Ortho Pharmaceutical, Raritan, N.J.) and washed once with cold phosphate buffer saline (PBS). Two million purified T-cells were resuspended in complete RPMI-1640 (RPMI) containing approximately 1140 μM of L-arginine (BioWhittaker, Walkersville, Md.) or in RPMI-1640 without L-arginine (Arg-free-RPMI) (GIBCO, Invitrogen, Grand Island, N.Y.) containing 100 ng/ml of anti-CD28 (Becton Dickinson, San Jose, Calif.) and added to plates. Control media included RPMI without L-glutamine or […]. Unstimulated T-cells were placed in the same culture conditions as controls. […]
To determine CD3ζ expression, purified T-cells were incubated for 15 min at 4° C. with anti-CD3-FITC or the isotype control (Beckman-Coulter, Miami, Fla.) at 1 μg of antibody/10^6 cells. […] Fluorescence analysis was done using a Coulter-EPICS flow cytometer (Beckman-Coulter, Miami, Fla.).

CAT-3 = CAT-3 (Homo sapiens, UniProt Q8WY07); conditions: read-out: Km for L-Arg; cited from earlier work
Sequence of CAT-3 (Q8WY07 whole entry, species assumed): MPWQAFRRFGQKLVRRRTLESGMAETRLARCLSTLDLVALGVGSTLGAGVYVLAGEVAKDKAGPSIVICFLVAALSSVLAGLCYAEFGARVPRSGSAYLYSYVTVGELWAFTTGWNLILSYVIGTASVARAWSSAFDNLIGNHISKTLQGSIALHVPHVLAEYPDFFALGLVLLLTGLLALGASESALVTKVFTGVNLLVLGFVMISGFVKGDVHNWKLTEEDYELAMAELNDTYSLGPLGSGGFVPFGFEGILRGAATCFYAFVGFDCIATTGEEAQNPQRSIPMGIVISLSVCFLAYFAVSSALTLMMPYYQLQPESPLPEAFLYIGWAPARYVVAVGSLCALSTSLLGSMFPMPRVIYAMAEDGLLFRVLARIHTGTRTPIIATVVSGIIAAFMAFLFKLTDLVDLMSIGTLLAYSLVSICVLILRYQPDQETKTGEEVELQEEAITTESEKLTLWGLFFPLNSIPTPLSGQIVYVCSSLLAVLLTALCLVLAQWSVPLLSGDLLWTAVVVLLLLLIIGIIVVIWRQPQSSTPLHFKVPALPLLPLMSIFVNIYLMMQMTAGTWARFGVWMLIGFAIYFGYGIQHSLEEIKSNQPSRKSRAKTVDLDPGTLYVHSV

CAT-1 = CAT-1 (Homo sapiens, UniProt P30825); conditions: read-out: Km for L-Arg; cited from earlier work
Sequence of CAT-1 (P30825 whole entry): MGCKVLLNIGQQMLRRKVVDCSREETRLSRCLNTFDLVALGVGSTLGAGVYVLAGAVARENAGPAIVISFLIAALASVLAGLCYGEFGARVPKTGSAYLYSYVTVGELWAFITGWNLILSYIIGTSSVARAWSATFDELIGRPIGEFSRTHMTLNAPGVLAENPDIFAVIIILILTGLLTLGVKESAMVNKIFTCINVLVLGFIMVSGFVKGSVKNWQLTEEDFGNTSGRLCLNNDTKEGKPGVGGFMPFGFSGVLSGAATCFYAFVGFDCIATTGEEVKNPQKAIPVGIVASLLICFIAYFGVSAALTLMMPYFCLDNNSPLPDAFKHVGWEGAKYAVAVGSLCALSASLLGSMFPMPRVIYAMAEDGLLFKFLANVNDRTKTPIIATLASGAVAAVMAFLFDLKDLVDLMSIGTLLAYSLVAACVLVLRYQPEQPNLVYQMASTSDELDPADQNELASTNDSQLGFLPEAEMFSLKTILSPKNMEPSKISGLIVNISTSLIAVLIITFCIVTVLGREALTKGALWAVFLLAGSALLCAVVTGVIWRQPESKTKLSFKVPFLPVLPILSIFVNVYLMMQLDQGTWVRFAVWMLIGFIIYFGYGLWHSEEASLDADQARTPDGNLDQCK

For `NC(=NCCC[C@H](N)C(=O)O)NO` [NOHA, NG-hydroxy-L-arginine], the “intracellular ASE activity” value (ASE) was “blocked intracellular ASE activity”.
In the case of `N=C(N)NCCC[C@H](N)C(=O)O` [L-arginine], the Km (CAT-2B) is listed as 100 µM, the “re-expression of CD3ζ after addition of L-arginine to the culture media” value (purified T-cells; L-arginine 1140 μM, T-cells stimulated in Arg-free-RPMI) is listed as “rapid re-expression of CD3ζ” and the “L-Arg concentrations that impair the re-expression of CD3ζ chain” value (purified T-cells; stimulated T-cells, in vitro) is listed as “below 40 μM”. For the same molecule, the Km (CAT-3) was 100 µM and the Km (CAT-1) was 100 µM.
